Laboratory results taken from patent US7211566B2 (Universite De Sherbrooke, priority 2003, dated 2007).
Each block holds one compound with its values, some of them ahead of it. Ends that are not written are not given here.

Key:
[1] = target: T1, angiotensin converting enzyme (ACE) (Oryctolagus cuniculus, UniProt P12822); assay: In vitro metabolic stability against purified rabbit lung ACE; format: in vitro ADME; conditions: purified angiotensin converting enzyme from rabbit lung, pH 7.5, peptide 200 μM, 60 min at 37° C., mean ± SEM of 3, read-out: Peptide metabolism (%) Rabbit lung ACE
T1 construct: In Vitro Biochemical Stability Assays Against Purified Native Enzymes; purchased Sigma, St. Louis, Mo; host or cells: rabbit lung
T1 sequence (P12822 34-1310): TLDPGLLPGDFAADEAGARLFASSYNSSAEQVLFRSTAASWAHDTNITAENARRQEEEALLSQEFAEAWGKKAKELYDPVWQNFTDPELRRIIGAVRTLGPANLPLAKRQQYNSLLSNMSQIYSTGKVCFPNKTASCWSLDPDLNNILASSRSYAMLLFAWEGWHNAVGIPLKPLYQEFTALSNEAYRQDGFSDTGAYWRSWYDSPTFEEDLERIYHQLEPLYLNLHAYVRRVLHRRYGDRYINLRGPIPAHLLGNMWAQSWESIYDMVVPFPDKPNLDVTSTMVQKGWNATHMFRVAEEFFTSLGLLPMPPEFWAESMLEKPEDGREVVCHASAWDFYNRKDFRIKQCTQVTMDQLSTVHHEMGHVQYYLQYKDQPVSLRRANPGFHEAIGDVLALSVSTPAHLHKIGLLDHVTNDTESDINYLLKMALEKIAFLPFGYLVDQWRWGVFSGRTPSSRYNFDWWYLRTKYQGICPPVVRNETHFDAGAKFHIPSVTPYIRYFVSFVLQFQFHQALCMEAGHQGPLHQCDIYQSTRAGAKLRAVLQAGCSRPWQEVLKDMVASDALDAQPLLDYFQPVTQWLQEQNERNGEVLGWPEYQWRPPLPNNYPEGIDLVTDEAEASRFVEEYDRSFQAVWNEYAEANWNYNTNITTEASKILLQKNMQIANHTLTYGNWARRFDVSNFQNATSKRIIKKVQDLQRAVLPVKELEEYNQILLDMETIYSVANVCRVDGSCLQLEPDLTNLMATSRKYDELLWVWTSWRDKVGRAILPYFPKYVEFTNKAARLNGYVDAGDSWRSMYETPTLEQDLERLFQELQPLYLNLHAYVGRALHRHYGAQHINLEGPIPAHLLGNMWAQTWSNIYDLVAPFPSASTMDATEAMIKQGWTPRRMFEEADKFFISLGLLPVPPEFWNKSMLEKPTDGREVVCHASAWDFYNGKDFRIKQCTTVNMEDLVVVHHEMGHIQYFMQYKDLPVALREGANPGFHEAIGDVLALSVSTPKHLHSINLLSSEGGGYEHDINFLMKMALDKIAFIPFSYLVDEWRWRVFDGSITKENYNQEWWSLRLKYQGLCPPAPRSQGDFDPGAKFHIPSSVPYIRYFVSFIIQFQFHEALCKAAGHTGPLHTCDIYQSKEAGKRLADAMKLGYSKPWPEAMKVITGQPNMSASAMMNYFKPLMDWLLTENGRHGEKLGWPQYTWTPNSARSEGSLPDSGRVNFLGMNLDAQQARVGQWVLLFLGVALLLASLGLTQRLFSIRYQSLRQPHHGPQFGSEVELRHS
Protocol: (§1) These assays were performed using three enzyme preparations: purified angiotensin converting enzyme (ACE; from rabbit lung), human plasma as a, source of aminopeptidase M (AmM) and human platelets as a source of aminopeptidase P (AmP).
Purified ACE from rabbit lungs (Sigma, St. Louis, Mo.) was dissolved in PBS (50 mM, pH 7.5, containing 300 mM NaCl and 10 μM ZnCl2; the final concentration of ACE was 45 μg/ml). Each of the peptide antagonists (200 μM) was incubated for 60 min at 37° C. with ACE (8.5 μl) (total volume medium, 187.5 μl). The enzymatic reaction was then terminated by boiling.
The experimental protocol for the measurement of ACE activity has been described elsewhere (Drapeau et a). 1993, J Pharmacol Exp Ther 266, 192–198; Gobeil et al., 1996, supra).

[2] = target: T2, aminopeptidase P (AmP) (Homo sapiens, UniProt Q9NQW7); assay: In vitro metabolic stability against human platelets AmP; format: in vitro ADME; conditions: mean ± SEM of 3 experiments
T2 construct: from tissue; host or cells: human platelets, freeze-thawed and sonicated, 43 000 x g supernatant
Protocol: as §1
Human platelet AmP was prepared as described by Maggiora et al. (1999, J Med Chem 42, 2394–2402). Human platelets (40 ml) were centrifuged at 250×g for 7 min at room temperature. The resulting supernatant was recentrifuged at 2790×g for 15 min at room temperature. Pellets were collected, resuspended in 40 ml of phosphate-buffered saline (PBS) containing 3.5% of sodium citrate, and then re-centrifuged at 2790×g for 15 min at room temperature. This washing step was repeated. Pellets were resuspended in 4 ml of PBS-sodium citrate, snap-frozen in liquid nitrogen, thawed at 37° C., sonicated briefly, and then centrifuged at 43 000×g for 2 h at 4° C. (Sorvall RC 5B, ss-34 rotor). The resulting supernatant was used for enzyme assays as described in Neugebauer et al. (Neugebauer et al. 2002, supra).

[3] = target: T3, aminopeptidase M (AmM) (Homo sapiens, UniProt P15144); assay: In vitro metabolic stability against human plasma AmM; format: in vitro ADME; conditions: male, human plasma as source of aminopeptidase M, pH 7.5, peptide 200 μM, 60 min incubation, mean ± SEM of 3, read-out: Peptide metabolism (%) Human plasma AmM
T3 construct: incubated for 60 min with 50 μl of human plasma; from tissue; host or cells: human plasma from heparinized blood of healthy male volunteers
Protocol: as §1
Human plasma AmM was prepared as previously described (Gobeil et al., 1999, Hypertension, 33, 823–829). Blood (5 ml) was withdrawn from healthy normotensive male Caucasian volunteers and put into heparinized tube (200 U). Blood samples were centrifuged at 1500 rpm for 15 min in a refrigerated tabletop centrifuge. The peptide antagonists (200 μM) were placed in a PBS buffer (50 mM, pH 7.5, containing 300 mM NaCl) and incubated for 60 min with 50 μl of human plasma (total volume of the medium, 375 μl). Immersing samples into boiling water and then cooling them on ice stopped the hydrolysis reaction. Control experiments have shown that ≈70% of the kininase activity that is present in the human plasma is abolished by amastatin (1 μM) and that the incubation of Lys-[Leu^8]desArg^9BK with this enzymatic preparation led to the production of [Leu^8]desArg^9BK as detected by electrospray mass spectrometry.

[4] = target: T4, BKB1 receptor (Homo sapiens, UniProt P46663); assay: Isolated human umbilical vein (hUV) organ bath, antagonist potency pA2; format: cell-based; set-up: the hUV that contains BKB1 and BKB2 receptors; from tissue; host or cells: isolated human umbilical vein (hUV)
T4 sequence (P46663 1-353): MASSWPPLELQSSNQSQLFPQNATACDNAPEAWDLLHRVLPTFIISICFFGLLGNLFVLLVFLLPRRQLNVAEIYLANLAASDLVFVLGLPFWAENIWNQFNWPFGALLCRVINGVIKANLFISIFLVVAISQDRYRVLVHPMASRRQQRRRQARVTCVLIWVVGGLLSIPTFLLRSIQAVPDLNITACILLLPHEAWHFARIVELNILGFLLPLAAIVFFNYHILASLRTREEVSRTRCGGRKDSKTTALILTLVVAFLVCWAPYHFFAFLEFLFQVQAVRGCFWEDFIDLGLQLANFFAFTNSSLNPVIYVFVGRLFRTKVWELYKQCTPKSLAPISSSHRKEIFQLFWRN
Protocol: (§2) Selected antagonists were tested for activities in three isolated organs: (1) the rabbit aorta (rbA), (2) the human umbilical vein (hUV) and (3) the rabbit jugular vein (rbJV).
(§3) All details regarding the procurements of human umbilical cords and rabbit vessels as well as, the procedures for preparing the isolated organs and the experimental protocols are described in these respective publications: rbA (Rioux et al. 1973, Can J Physiol Pharmacol 51, 114–121); hUV (Gobeil et al. 1996, Br J Pharmacol 118, 289–294), and rbJV (Gaudreau et al. 1981, Can J Physiol Pharmacol 59, 371–379).
(§4) The rabbit jugular vein (a pure BKB2 receptor system) was used to exclude any action of the new compounds on the BKB2 receptor and thus establish their selectivity. All tissues were treated with captopril (1 μM) to prevent the degradation of the peptidic agonists.
(§5) Repeated applications of a single and double concentration of BK (on rbJV,) or of desArg^9BK (rbA and hUV) were made in the absence and in presence of the various peptides to evaluate their apparent affinities as antagonists, in terms of pA2 (-log10 of the molar concentration of antagonist that reduces the effect of a double concentration of agonist to that of a single one) (Schild 1947, Br J Pharmacol 2, 189–206).

[5] = test system: angiotensin converting enzyme (ACE); assay: Purified ACE from rabbit lungs (Sigma, St. Louis, Mo.) dissolved in PBS (50 mM, pH 7.5, containing 300 mM NaCl and 10 μM ZnCl2); conditions: 37° C., up to 60 min
[6] = human plasma as a source of aminopeptidase M (AmM); conditions: up to 60 min
[7] = target: T5, BKB1 receptor (Oryctolagus cuniculus, UniProt P48748); assay: Isolated rabbit aorta (rbA) organ bath, antagonist potency pA2; format: cell-based; conditions: rabbit aorta without endothelium; mean ± SEM of 4–7 experiments
T5 construct: The rabbit aorta without endothelium (which contains only the BKB1 receptor); from tissue; host or cells: isolated rabbit aorta (rbA) without endothelium
T5 sequence (P48748 1-352): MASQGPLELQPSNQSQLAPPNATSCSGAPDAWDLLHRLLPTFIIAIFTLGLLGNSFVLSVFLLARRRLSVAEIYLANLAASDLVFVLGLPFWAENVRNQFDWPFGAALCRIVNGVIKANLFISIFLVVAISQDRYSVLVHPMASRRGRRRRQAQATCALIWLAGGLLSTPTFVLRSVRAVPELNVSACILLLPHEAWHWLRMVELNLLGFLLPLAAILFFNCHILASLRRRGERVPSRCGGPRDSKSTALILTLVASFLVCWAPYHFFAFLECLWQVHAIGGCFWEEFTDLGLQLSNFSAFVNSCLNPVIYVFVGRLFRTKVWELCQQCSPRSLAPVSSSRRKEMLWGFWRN
Protocol: as §2, §3
The rabbit aorta without endothelium (which contains only the BKB1 receptor) was used to determine the antagonistic activities of each compound.
as §4, §5

[8] = target: T6, BKB2 receptor (Oryctolagus cuniculus, UniProt Q28642); assay: Isolated rabbit jugular vein (rbJV) organ bath, antagonist potency pA2; format: cell-based; conditions: BK as agonist
T6 construct: The rabbit jugular vein (a pure BKB2 receptor system); from tissue; host or cells: isolated rabbit jugular vein (rbJV)
T6 sequence (Q28642 1-367): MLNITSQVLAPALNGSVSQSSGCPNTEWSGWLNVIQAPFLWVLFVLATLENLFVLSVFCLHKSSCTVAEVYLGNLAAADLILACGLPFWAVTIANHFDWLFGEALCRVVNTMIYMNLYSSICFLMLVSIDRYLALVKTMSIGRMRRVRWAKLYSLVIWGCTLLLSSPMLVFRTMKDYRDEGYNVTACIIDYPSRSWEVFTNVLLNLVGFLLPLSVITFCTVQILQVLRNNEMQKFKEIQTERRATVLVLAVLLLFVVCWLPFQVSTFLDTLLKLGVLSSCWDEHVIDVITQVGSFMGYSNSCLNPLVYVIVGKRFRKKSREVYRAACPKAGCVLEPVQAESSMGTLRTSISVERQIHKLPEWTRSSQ
Protocol: as §2, §3, §4, §5

[9] = test system: carboxypeptidases of the M type (CPM); conditions: cited from earlier work
[10] = test system: carboxypeptidases of the N type (CPN); conditions: cited from earlier work

T3 sequence (P15144 whole entry): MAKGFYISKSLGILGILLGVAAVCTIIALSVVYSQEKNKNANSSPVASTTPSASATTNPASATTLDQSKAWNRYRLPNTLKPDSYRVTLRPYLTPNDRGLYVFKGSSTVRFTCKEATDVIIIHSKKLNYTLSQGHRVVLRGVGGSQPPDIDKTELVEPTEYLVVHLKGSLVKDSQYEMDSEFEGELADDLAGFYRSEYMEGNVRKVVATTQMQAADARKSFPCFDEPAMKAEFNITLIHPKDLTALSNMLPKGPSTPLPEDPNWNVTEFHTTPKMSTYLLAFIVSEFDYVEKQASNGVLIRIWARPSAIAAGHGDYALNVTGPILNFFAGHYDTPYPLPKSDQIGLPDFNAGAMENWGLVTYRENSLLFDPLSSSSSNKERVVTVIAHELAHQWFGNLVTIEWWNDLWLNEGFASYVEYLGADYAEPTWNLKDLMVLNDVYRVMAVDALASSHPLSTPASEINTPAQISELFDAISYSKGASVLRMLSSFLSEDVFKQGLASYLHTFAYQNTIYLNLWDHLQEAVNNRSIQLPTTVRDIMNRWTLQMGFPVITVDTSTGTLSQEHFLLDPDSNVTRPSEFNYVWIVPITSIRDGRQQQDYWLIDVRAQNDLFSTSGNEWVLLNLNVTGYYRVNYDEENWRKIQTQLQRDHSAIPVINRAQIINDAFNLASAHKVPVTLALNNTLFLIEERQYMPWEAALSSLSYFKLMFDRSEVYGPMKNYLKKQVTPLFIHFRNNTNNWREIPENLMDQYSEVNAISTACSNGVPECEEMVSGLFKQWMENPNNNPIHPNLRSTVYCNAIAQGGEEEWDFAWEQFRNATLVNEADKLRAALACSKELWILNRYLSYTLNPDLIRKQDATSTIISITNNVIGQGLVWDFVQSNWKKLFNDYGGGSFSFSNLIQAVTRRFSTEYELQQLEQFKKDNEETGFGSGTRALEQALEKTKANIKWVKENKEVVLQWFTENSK
T2 sequence (Q9NQW7 whole entry): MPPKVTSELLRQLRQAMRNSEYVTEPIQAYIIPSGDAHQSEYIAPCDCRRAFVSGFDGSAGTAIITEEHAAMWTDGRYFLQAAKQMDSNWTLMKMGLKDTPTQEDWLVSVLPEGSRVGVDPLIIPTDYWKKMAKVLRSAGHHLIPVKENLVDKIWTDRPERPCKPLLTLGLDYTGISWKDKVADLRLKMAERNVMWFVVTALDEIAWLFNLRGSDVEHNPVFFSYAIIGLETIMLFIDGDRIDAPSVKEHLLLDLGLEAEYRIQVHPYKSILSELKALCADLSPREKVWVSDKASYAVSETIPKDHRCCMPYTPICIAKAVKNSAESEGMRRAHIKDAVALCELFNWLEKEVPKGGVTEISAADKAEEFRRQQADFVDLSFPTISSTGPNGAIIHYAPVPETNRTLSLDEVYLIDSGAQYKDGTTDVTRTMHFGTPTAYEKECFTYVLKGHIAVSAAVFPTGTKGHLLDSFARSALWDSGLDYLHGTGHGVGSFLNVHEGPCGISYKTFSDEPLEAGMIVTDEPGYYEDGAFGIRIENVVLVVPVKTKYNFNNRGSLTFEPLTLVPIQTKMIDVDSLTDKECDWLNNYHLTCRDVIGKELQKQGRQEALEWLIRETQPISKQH

Compound: CC(C)C[C@H](NC(=O)[C@@H]1CCCN1C(=O)[C@H](CO)NC(=O)[C@H](Cc1ccccc1)NC(=O)CNC(=O)[C@@H]1CCCN1C(=O)[C@@H]1CCCN1C(=O)[C@H](CCCN=C(N)N)NC(=O)[C@@H](N)CCCCN)C(=O)O [Lys-[Leu^8]desArg^9-BK, Lys-[Leu^8] desArg^9BK, reference compound]
- metabolised at 1 h, 200 µM [1]: 93 ± 3%
- Peptide metabolism (%) Human platelets AmP [2]: 99 ± 1%
- metabolised at 1 h, 200 µM [3]: 100%
- affinity higher than that of [Leu^8]desArg^9BK ([4]; BKB1 receptor antagonist affinity, effect of N-terminal Lys): at least 1.5 log units

Compound: RPPGFSPFR
- cleaved bond [9]: Phe8-Arg9
- cleaved bond [10]: Phe8-Arg9

Compound: Lys-[Leu^8] desArg^9BK
- cleaved bond [5]: Phe5-Ser6
- fragment found [6]: [Leu^8]desArg^9BK

The next lines start with the values.

- not cleaved [5]: Peptide metabolism 0 % (60 min)
- not cleaved [6]: Peptide metabolism 0 % (60 min)
Compound: Ac-Lys[Oic^2,(α-Me)Phe^5,D-βNal^7,Ile^8]desArg^9BK

- Antagonist potencies (pA2) BKB1-R rbA [7]: 8.30 ± 0.08
- Antagonist potencies (pA2) BKB2-R rbJV [8]: <6.00
Compound: Ac-Orn[Oic^2,Oic^3(α-Me)Phe^5,D-βNal^7,Ile^8]desArg^9BK

- Antagonist potencies (pA2) BKB1-R rbA [7]: 8.40 ± 0.12
- Antagonist potencies (pA2) BKB2-R rbJV [8]: <6.00
- Antagonist potencies (pA2) BKB1-R hUV ([4]; human umbilical vein treated with HOE 140, mean ± SEM of 4–7 experiments): 8.49 ± 0.10
Compound: Ac-Lys-[D-βNal^7, Ile^8] desArg^9BK [Ac-Lys-[D-βNal^7, Ile^8]desArg^9-BK, reference compound]
